{
  "source": "patent US20220047702A1",
  "about": "“TARGETED MAGNETIC VEHICLES AND METHOD OF USING THE SAME” (HADASIT MEDICAL RESEARCH SERVICES AND DEVELOPMENT LTD., priority 2019, published 2022)",
  "key": {"[1]": {"test_system": "CT26 tumor (Bev resistant)", "test": "Anti-tumor activity of Bev SPIONs in Bev resistant tumors", "assay_type": "in vivo, mice", "settings": "10 mg/kg (FIG. 13), without magnetic field"}, "[2]": {"test": "Bound avastin concentration on IO/HSA NPs (ELISA)", "assay_type": "physicochemical", "settings": "via ELISA method", "experimental": "200 μl of NHS-PEG-MA [MA=melimide] (MW=3000 g/mol) were added to sterile IO/HSA nanoparticles dispersion in PBS (5 ml, 10 mg/mL). The reaction mixture was shaken at room temperature for 30 min. The derivatized PEGMA-conjugated IO/HSA NPs PBS dispersion was washed and eluted with bicarbonate buffer in a magnetic column, followed by immediate addition under sterile conditions of 40 μl of AV aqueous solution (25 mg/ml). The reaction mixture was shaken at 4° C. for 1.5 h. then, 10 weight % glycine solution (10 mg) were added to the AV-conjugated IO/HSA NPs bicarbonate aqueous dispersion to block residual sites. The AV-IO/HSA nanoparticles were then washed and eluted through a magnetic column with PBS and stored under sterile conditions.\nAvastin was physically conjugated to the IO/HSA nanoparticles by adding 7.5 mg of avastin to 4 mL of the IO/HSA NPs PBS dispersion (10 mg/mL). […]\nThe attached and remaining concentrations of physically and covalently conjugated avastin was determined through ELISA assay using a standard protocol. The calculated covalent bound avastin concentration (via ELISA method) was 0.10 mg/1 mg of the nanoparticles. The calculated physical conjugated avastin concentration (via ELISA method) was 0.13 mg/1 mg of the nanoparticles (30% more of the covalent binding process)."}, "CT26 tumors": {"test_system": "CT26 tumors", "test": "Anti-tumor activity of systemically administered 5FU in tumor-xenografted mice", "assay_type": "in vivo", "settings": "three consecutive intraperitoneal injections, vs normal saline", "experimental": "Male BALB/c mice (6 weeks of age, Envigo, Israel) were used for all in-vivo experiments. All experiments were performed with approval and in accordance with the guidelines of the Institutional Animal Care and Use Committee at The Hebrew University of Jerusalem. 1.5×10^6 CT26 cells were injected subcutaneously into the right anterior limb of each mouse. Ten days later (day 0) colorectal tumor appeared at the injection site. The mice were randomly allocated to control and experimental groups.\nFollowing tumor creation systemic administration via intraperitoneal (IP) injection of 5FU (experiment) or normal saline (control) was performed. 5FU injections were carried out on days 3, 4, 5. Tumor progression was evaluated by measuring the tumor volume using a Vernier caliper at days 0,1,3,4,6,8 and 10.\nStatistical analyses of tumor volumes were performed using RM two-way Analysis of Variation (ANOVA) with a confidence interval of 95% using post hoc Dunnet' s analysis of multiple comparisons for the tumor treated with 5FU bounded to 6×IONPs and Sidak's analysis for the tumor treated with free 5FU. Statistical analysis of iron staining quantification in the spleen was performed using the nonparametric Kruskal-Wallis test with a confidence interval of 95% using post hoc Dunn's analysis of multiple comparisons."}},
  "note": "“Also recorded” adds a separate entry of the source.",
  "data": [
    {"molecule": "bevacizumab", "values": [
      {"measurement": "tumor growth", "setting": "[1]; local administration", "value": "did not yield inhibition of tumor growth; also recorded: had no effect on tumor growth"},
      {"measurement": "tumor growth", "setting": "[1]; systemic administration", "value": "did not yield inhibition of tumor growth; also recorded: had no effect on tumor growth"}
    ]},
    {"molecule": "AV-IO/HSA: Avastin covalently bound via NHS-PEG-MA to IO/HSA nanoparticles", "values": [
      {"measurement": "calculated bound avastin concentration", "setting": "[2]", "value": "0.10 mg/1 mg of the nanoparticles"}
    ]},
    {"molecule": "O=c1[nH]cc(F)c(=O)[nH]1", "note": "[5FU, 5-Fluorouracil]", "values": [
      {"measurement": "tumor volume / tumor growth", "setting": "CT26 tumors", "value": "No significant changes in tumor volumes; also recorded: did not inhibit CT26 tumor growth at all; also recorded: no significant difference"}
    ]}
  ]
}
